According to patent US20240325548A1, “DYNAMIC BIOACTIVE SCAFFOLDS AND THERAPEUTIC USES THEREOF AFTER CNS INJURY” (Northwestern University, priority 2021, published 2024):

How the values were obtained:
[1] = test system: murine model of severe spinal cord injury (SCI); experiment: Corticospinal tract (CST) axon regrowth after SCI (BDA tracing); format: in vivo, mouse; details: 12 weeks after injury, BDA-labeled axons
Method: All experiments were conducted at the Simpson Querrey Institute at Northwestern University. 182 CD1 mice (Charles River) were subjects of this study (N=38 Sham, N=38 IKVAV PA2 alone, N=38 IKVAV PA2+FGF2 PA1, N=38 IKVAV PA2+FGF2 PA2, N=12 IKVAV PA1, N=12 Backbone PA, N=6 IKVAV PA4). The age of animals used in the study was in the range of 10-16 weeks. 8 independent in vivo experiments were carried out (injury+PA injection) and each of the 8 experiments had animals of the exact same age which were injected with at least the 4 main treatment groups: Sham, IKVAV PA2 alone, IKVAV PA2+FGF2 PA1, and IKVAV PA2+FGF2 PA2. Animals were anesthetized using 2.5% isoflurane gas with oxygen. A laminectomy was performed to expose the spinal cord at the T10-T11 spinal level. A severe contusive injury was performed using the Infinite Horizon Spinal Cord Impactor system (IH-0400 Precision Systems and Instrumentation) with 85 kdyn of impact force and a dwell time of 60 s. After the lesion, the skin was sutured using 9 mm wound clips (BD Biosciences) and the animals were recovered on a heating pad to maintain body temperature. Bladders were manually expressed daily during the entire 12 weeks of the experiment.
PAs (dissolved in sterile NaCl 0.9% solution at 1 wt %) were injected 24 h after SCI using a glass capillary micropipette (Sutter Instruments, Novato, CA) (outer diameter, 100 m) coated with Sigmacote (Sigma-Aldrich) to reduce surface tension as described elsewhere (19). The capillaries were loaded onto a Hamilton syringe using a female Luer adaptor (World Precision Instruments) controlled by a Micro4 microsyringe pump controller (World Precision Instruments). Under isoflurane anesthesia, autoclips were removed and the injury site was exposed. At 24 h post injury, the laminectomy in the spinal column was still intact and the bruise created by the lesion was visible. A stereotaxic Kopf apparatus was used to position the micropipette just dorsal to the lesion. The micropipette was lowered to a depth of 750 m measured from the dorsal surface of the cord, and 4-6 μL of the diluted amphiphile solution was injected at 1 L/min. […]
Axons labeled using BDA (Thermofisher, N7167) or stained with 5HT (Abcam) were quantified using Imaris® software version 9.3 as previously described (21). Lines were drawn across longitudinal spinal cord sections from the proximal border (PB) to the distal border (DB) of the SCI lesion at consistent distances and the number of axons intercepting the lines drawn was counted by researchers that were blinded to the experimental conditions. Multiple sections through the middle of the cord, where BDA or 5HT staining was denser, were counted per mouse and expressed as total intercepts per location, per animal. […]

[2] = Miscibility and hydrogel formation of IKVAV PA / FGF2 PA binary systems (cryo-TEM, rheology); format: physicochemical; details: particularly at molar ratio 90:10
Method: For in vitro experiments: After lyophilization, PA powder was reconstituted in 150 mM NaCl and 3 mM KCl solution and adjusted to a pH of 7.4 using 1 μL additions of 1 M NaOH to ensure cell compatibility and material consistency. Different bioactive PAs were mixed at different mol % (see Table 3) and horn sonicated at 10% intensity, three times for 10 seconds. PA solutions were annealed at 80° C. for 30 min and then slowly cooled at 1° C. per minute to reach a final temperature of 27° C. using a thermocycler (Eppendorf PCR Thermocycler) for even and controlled heating and cooling of all samples. To prepare a PA coated substrate, 24-, 12-, or 6-well polystyrene cell culture plate or 12 mm and 18 mm glass coverslips (German Glass, Chemglass Life Science) were coated with poly-D-lysine (0.01 mg/mL, Sigma-Aldrich) for 3 h at 37° C. The plates were then rinsed with MilliQ water three times and allowed to dry for 4 h. PAs were painted on the coverslips or tissue culture plates by dragging a pipette (8-30 μL of annealed PAs (1 wt %)) to extrude a thin, even coating of material across the surface. PA coatings were incubated for 3 h at room temperature. The plates were gently rinsed with media before further use. For dye-labeled PAs experiments, Cy3-labeled-FGF2 PAs were co-assembled at 1 mol % with their corresponding non-labeled PA counterparts (see table 3).
Plunge-freezing for Cryo-TEM samples were prepared using a FEI model Vitrobot MarkIV (FEI). 7 μL of the sample solution ([PA]=0.05-0.1 wt % in H2O) was deposited on a plasma-cleaned TEM grid (300 mesh copper with lacey carbon, Electron Microscopy Sciences) and held in place with tweezers mounted on the Vitrobot. The specimen was blotted in an environment with 100% humidity at room temperature (blot force: 3, blot total: 1-2, wait time: 0.5-1 s, blot time: 3 s, drain time: 0-1 s), and plunged into a liquid ethane reservoir cooled by liquid nitrogen. The vitrified samples were stored in liquid nitrogen and then transferred to a Gatan 626 Cryo-TEM holder. Cryo-TEM images were obtained using a JEOL1230 electron microscope operating with a LaB6 filament at an accelerating voltage of 100 kV, equipped with a Gatan 831 CCD camera.
PA materials were prepared using the method described above for in vitro studies. An MCR302 Rheometer (Anton Paar) was used for all rheological studies. The instrument stage was set to 37° C. to simulate in vitro and in vivo conditions. The PA solution (150 μL) was placed on the sample stage and 30 μL of 25 mM CaCl2) solution was pipetted onto the underside of a 25 mm cone plate positioned above the material. […] The storage and loss modulus (G′ and G″) were recorded after a plateau occurred.

Substance | CST axon regrowth within the lesion [1] | miscibility and hydrogel formation when mixed with FGF2 PA1 or FGF2 PA2 [2]
C16-A2G2E4GIKVAV [IKVAV PA2] | modest, but increased axon regrowth | both miscible and could form hydrogels with similar mechanical properties
C16-G4E4GIKVAV [IKVAV PA5] | – | immiscibility
C16-V2A2E4GIKVAV [IKVAV PA1] | some regrowth of axons | immiscibility
C16-VAG2E4GIKVAV [IKVAV PA4] | intermediate level of axon regrowth | immiscibility
